Test [1] addresses HCV NS3/4A protease genotype 1b (Hepatitis C virus genotype 1b, UniProt P26663). As to the kind of experiment: HCV NS3/4A protease time-resolved fluorescence (TRF) assay, Ki against genotype 1b. Format: biochemical. The essentials:
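First, protease (genotype 1b 0.2 nM, A156T 0.4 nM, genotype 3a 0.025 nM) is preincubated 30 min with inhibitor. Next, 25 nM TRF substrate starts the reaction, run 2.5 h at room temperature. Finally, europium fluorescence is read and Ki calculated from IC50.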

For a further test, the system named is HCV genotype 1b replicon. As to the kind of experiment: HCV replicon assay, genotype 1b replicon EC50. In kind it is cell-based, Hepatitis C virus. Particulars: Hepatitis C virus, read-out: EC50 [gt-1b]. The essentials: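 Stable neomycin-selected genotype 1b replicon cells, some carrying luciferase:Neo^r fusion, plated without G418 with a compound dilution series and incubated 24-48 h. Read-out was RNA (^32P-probe protection or TaqMan, normalized to cyclophilin A) or luciferase activity. EC50 from four-parameter fit as percent of DMSO control.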
On the technique in general: A replicon is a self-replicating genome or part of one, used to study replication in cells.

[2] abbreviates: IC50 [gt-1b], NS3/4A protease TRF assay, genotype 1b enzyme 0.2 nM.
The mark [3] stands for this setting: IC50 [gt-1b] (nM), NS3/4A genotype 1b, enzyme 0.2 nM, K+ salt.
[4] abbreviates: IC50 [gt-1b] (nM), NS3/4A genotype 1b, enzyme 0.2 nM.

For 12 compounds, IC50 and EC50 results are on record in patent publication US8987195B2 (priority 2012, dated 2015).

SMILES strings stand for the structures. Read-outs that look alike come from different tables or passages of the source.

For the compound `CC(C)(C)OC(=O)N[C@H]1CCCCC/C=C\[C@@H]2C[C@@]2(C(=O)NS(=O)(=O)C2(C)CC2)NC(=O)[C@@H]2C[C@]3(CCc4c(c(C(F)(F)F)nc5ccc(OCCO[Si](C)(C)C(C)(C)C)cc45)O3)CN2C1=O` [Example 492, tert-butyl [(2R,6S,12Z,13aS,14aR,16aS)-9′-(2-{[tert-butyl(dimethyl)silyl]oxy}ethoxy)-14a-{[(1-methylcyclopropyl)sulfonyl]carbamoyl}-5,16-dioxo-5′-(trifluoromethyl)-1,1′,2′,5,6,7,8,9,10,11,13a,14,14a,15,16,16a-hexadecahydrospiro[cyclopropa[e]pyrrolo[1,2-a][1,4]diazacyclopentadecine-2,3′-pyrano[2,3-c]quinolin]-6-yl]carbamate], the IC50 (commonly the midpoint of a concentration-inhibition curve) in test [1] (setting [2]) worked out at 0.044 nM. Also, the EC50 (as a rule, the midpoint of the concentration-response curve) in the test on HCV genotype 1b replicon (HCV replicon, genotype 1b) came to 1.39 nM.
In the case of `COc1ccc2nc(C)c3c(c2c1)[C@H](F)C[C@]1(C[C@H]2C(=O)N[C@]4(C(=O)NS(=O)(=O)C5(C)CC5)C[C@H]4/C=C\CCCCC[C@H](NC(=O)OCC(C)(C)C)C(=O)N2C1)O3` [Example 371, 2,2-dimethylpropyl [(1′R,2S,6S,12Z,13aS,14aR,16aS)-1′-fluoro-9′-methoxy-5′-methyl-14a-{[(1-methylcyclopropyl)sulfonyl]carbamoyl}-5,16-dioxo-1,1′,2′,5,6,7,8,9,10,11,13a,14,14a,15,16,16a-hexadecahydrospiro[cyclopropa[e]pyrrolo[1,2-a][1,4]diazacyclopentadecine-2,3′-pyrano[2,3-c]quinolin]-6-yl]carbamate], the IC50 in test [1] (IC50 [gt-1b], NS3/4A protease TRF assay, genotype 1b enzyme 0.2 nM, K+ salt) came to 0.015 nM. For the same compound, in the test with HCV genotype 1b replicon (HCV replicon, genotype 1b, K+ salt), the concentration giving a half-maximal response (EC50) is 1.27 nM.
As to `Cc1nc2ccccc2c2c1O[C@]1(CC2)C[C@H]2C(=O)N[C@]3(C(=O)NS(=O)(=O)C4(C)CC4)C[C@H]3/C=C\CCCCC[C@H](NC(=O)OC3CCCCC3)C(=O)N2C1` [Example 143, cyclohexyl [(2R,6S,12Z,13aS,14aR,16aS)-5′-methyl-14a-{[(1-methylcyclopropyl)sulfonyl]carbamoyl}-5,16-dioxo-1,1′,2′,5,6,7,8,9,10,11,13a,14,14a,15,16,16a-hexadecahydrospiro[cyclopropa[e]pyrrolo[1,2-a][1,4]diazacyclopentadecine-2,3′-pyrano[2,3-c]quinolin]-6-yl]carbamate], the 50% inhibitory concentration (IC50) in test [1] (setting [3]) was found to be 0.009 nM. The EC50 in the test on HCV genotype 1b replicon (genotype 1b replicon, K+ salt) was found to be 1.18 nM.
Consider `CC1(OC(=O)N[C@H]2CCCCC/C=C\[C@@H]3C[C@@]3(C(=O)NS(=O)(=O)C3(C)CC3)NC(=O)[C@@H]3C[C@]4(CCc5c(c(C6CC6)nc6ccccc56)O4)CN3C2=O)CCC1` [Example 111, 1-methylcyclobutyl [(2R,6S,12Z,13aS,14aR,16aS)-5′-cyclopropyl-14a-{[(1-methylcyclopropyl)sulfonyl]carbamoyl}-5,16-dioxo-1,1′,2′,5,6,7,8,9,10,11,13a,14,14a,15,16,16a-hexadecahydrospiro[cyclopropa[e]pyrrolo[1,2-a][1,4]diazacyclopentadecine-2,3′-pyrano[2,3-c]quinolin]-6-yl]carbamate], for which 0.011 nM corresponded to half-maximal inhibition in test [1] (setting [4]) (IC50). Further, the EC50 in the test on HCV genotype 1b replicon (genotype 1b replicon) was 0.685 nM.
For `CC(C)(C)OC(=O)N[C@H]1CCCCC/C=C\[C@@H]2C[C@@]2(C(=O)NS(=O)(=O)C2(C)CC2)NC(=O)[C@@H]2C[C@]3(CCc4c(c(CN5CCOCC5)nc5ccccc45)O3)CN2C1=O` [Example 38, tert-butyl ((2R,6S,13aS,14aR,16aS,Z)-14a-(((1-methylcyclopropyl)sulfonyl)carbamoyl)-5′-(morpholinomethyl)-5,16-dioxo-1′,2′,3,5,6,7,8,9,10,11,13a,14,14a,15,16,16a-hexadecahydro-1H-spiro[cyclopropa[e]pyrrolo[1,2-a][1,4]diazacyclopentadecine-2,3′-pyrano[2,3-c]quinolin]-6-yl)carbamate], in that order: 0.058 nM and 22.1 nM.
As for `CC(C)COC(=O)N[C@H]1CCCCC/C=C\[C@@H]2C[C@@]2(C(=O)NS(=O)(=O)C2(C)CC2)NC(=O)[C@@H]2C[C@]3(CCc4c(c(C5CC5)nc5c(F)cccc45)O3)CN2C1=O` [Example 151, 2-methylpropyl [(2R,6S,12Z,13aS,14aR,16aS)-5′-cyclopropyl-7′-fluoro-14a-{[(1-methylcyclopropyl)sulfonyl]carbamoyl}-5,16-dioxo-1,1′,2′,5,6,7,8,9,10,11,13a,14,14a,15,16,16a-hexadecahydrospiro[cyclopropa[e]pyrrolo[1,2-a][1,4]diazacyclopentadecine-2,3′-pyrano[2,3-c]quinolin]-6-yl]carbamate], the IC50 in test [1] (setting [3]) was found to be 0.014 nM. For the same compound, the EC50 in the test with HCV genotype 1b replicon (genotype 1b replicon, K+ salt) was determined as 1.77 nM.
The compound `CCc1nc2ccc(OC)cc2c2c1O[C@]1(CC2)C[C@H]2C(=O)N[C@]3(C(=O)NS(=O)(=O)C4(C)CC4)C[C@H]3/C=C\CCCCC[C@H](NC(=O)c3ccc(C)s3)C(=O)N2C1` [Example 466, (2R,6S,12Z,13aS,14aR,16aS)-5′-ethyl-9′-methoxy-N-[(1-methylcyclopropyl)sulfonyl]-6-{[(5-methylthiophen-2-yl)carbonyl]amino}-5,16-dioxo-1,1′,2′,6,7,8,9,10,11,13a,14,15,16,16a-tetradecahydrospiro[cyclopropa[e]pyrrolo[1,2-a][1,4]diazacyclopentadecine-2,3′-pyrano[2,3-c]quinoline]-14a(5H)-carboxamide] registered an IC50 in test [1] (setting [2]) of 0.041 nM. Moreover, the EC50 in the test on HCV genotype 1b replicon (HCV replicon, genotype 1b) stood at 1.62 nM.
Consider `COc1ccc2nc(C(F)F)c3c(c2c1Cl)CC[C@]1(C[C@H]2C(=O)N[C@]4(C(=O)NS(=O)(=O)C5(C)CC5)C[C@H]4/C=C\CCCCC[C@H](NC(=O)OC(C)(C)C)C(=O)N2C1)O3` [Example 28, tert-Butyl [(2R,6S,12Z,13aS,14aR,16aS)-10′-chloro-5′-(difluoromethyl)-9′-methoxy-14a-{[(1-methylcyclopropyl)sulfonyl]carbamoyl}-5,16-dioxo-1,1′,2′,5,6,7,8,9,10,11,13a,14,14a,15,16,16a-hexadecahydrospiro[cyclopropa[e]pyrrolo[1,2-a][1,4]diazacyclopentadecine-2,3′-pyrano[2,3-c]quinolin]-6-yl]carbamate], for which, in test [1] (setting [4]), half-maximal inhibition (IC50) required 0.016 nM. Besides, the EC50 in the test on HCV genotype 1b replicon (genotype 1b replicon) amounted to 14.7 nM.
The corresponding values for `COc1ccc2nc(C3CCC3)c3c(c2c1)CC[C@]1(C[C@H]2C(=O)N[C@]4(C(=O)NS(=O)(=O)C5(C)CC5)C[C@H]4/C=C\CCCCC[C@H](NC(=O)OC4CCCC4)C(=O)N2C1)O3` [Example 170, cyclopentyl [(2R,6S,12Z,13aS,14aR,16aS)-5′-cyclobutyl-9′-methoxy-14a-{[(1-methylcyclopropyl)sulfonyl]carbamoyl}-5,16-dioxo-1,1′,2′,5,6,7,8,9,10,11,13a,14,14a,15,16,16a-hexadecahydrospiro[cyclopropa[e]pyrrolo[1,2-a][1,4]diazacyclopentadecine-2,3′-pyrano[2,3-c]quinolin]-6-yl]carbamate] are 0.013 nM and 2.65 nM.
As to `COc1ccc2nc(C)c3c(c2c1)CC[C@]1(C[C@H]2C(=O)N[C@]4(C(=O)NS(=O)(=O)C5(C)CC5)C[C@H]4/C=C\CCCCC[C@H](Nc4ncccn4)C(=O)N2C1)O3` [Example 57, (2R,6S,13aS,14aR,16aS,Z)-9′-methoxy-5′-methyl-N-((1-methylcyclopropyl)sulfonyl)-5,16-dioxo-6-(pyrimidin-2-ylamino)-1′,2′,3,5,6,7,8,9,10,11,13a,14,14a,15,16,16a-hexadecahydro-1H-spiro[cyclopropa[e]pyrrolo[1,2-a][1,4]diazacyclopentadecine-2,3′-pyrano[2,3-c]quinoline]-14a-carboxamide], in test [1] (setting [4]), the IC50 is 0.137 nM. For the same compound, in the test on HCV genotype 1b replicon (genotype 1b replicon), the EC50 stood at 9.23 nM.
`COc1ccc2nc(C(F)(F)F)c3c(c2c1)C=C[C@]1(CN2C(=O)[C@@H](NC(=O)OC(C)(C)C)CCCCC/C=C\[C@@H]4C[C@@]4(C(=O)NS(=O)(=O)C4(C)CC4)NC(=O)[C@@H]2C1C)O3` (stereo partly drawn) [Example 62, tert-Butyl ((2S,6S,13aS,14aR,16aS,Z)-9′-methoxy-1-methyl-14a-(((1-methylcyclopropyl)sulfonyl)carbamoyl)-5,16-dioxo-5′-(trifluoromethyl)-3,5,6,7,8,9,10,11,13a, 14,14a,15,16,16a-tetradecahydro-1H-spiro[cyclopropa[e]pyrrolo[1,2-a][1,4]diazacyclopentadecine-2,3′-pyrano[2,3-c]quinolin]-6-yl)carbamate] displayed an IC50 in test [1] (setting [4]) of 0.016 nM. In addition, in the test on HCV genotype 1b replicon (genotype 1b replicon), the EC50 amounted to 0.26 nM.
Turning to `Cc1nc2ccccc2c2c1O[C@]1(CC2)C[C@H]2C(=O)N[C@]3(C(=O)NS(=O)(=O)C4(C)CC4)C[C@H]3/C=C\CCCCC[C@H](NC(=O)N(C(C)C)C(C)C)C(=O)N2C1` [Example 293, (2R,6S,12Z,13aS,14aR,16aS)-6-{[di(propan-2-yl)carbamoyl]amino}-5′-methyl-N-[(1-methylcyclopropyl)sulfonyl]-5,16-dioxo-1,1′,2′,6,7,8,9,10,11,13a,14,15,16,16a-tetradecahydrospiro[cyclopropa[e]pyrrolo[1,2-a][1,4]diazacyclopentadecine-2,3′-pyrano[2,3-c]quinoline]-14a(5H)-carboxamide], the IC50 in test [1] (IC50 [gt-1b] (nM), NS3/4A genotype 1b, enzyme 0.2 nM, HCOOH salt) stood at 0.021 nM. The EC50 with HCV genotype 1b replicon (genotype 1b replicon, HCOOH salt) came out at 4.87 nM.
